{"source": "patent US9579337B2", "about": "“Use of uridine and deoxyuridine to treat folate-responsive pathologies” (priority 2011, dated 2017)", "key": {"splotch mutant (Pax3^Sp)": {"tested_on": "splotch mutant (Pax3^Sp)", "conditions": "splotch mutant / splotch homozygotes; literature (Wlodarczyk 2005; Fleming 1998; others); cited from earlier work"}, "[1]": {"tested_on": "Shmt1-deficient embryos (NTDs, exencephaly)", "experiment": "Neural tube defects (exencephaly) in embryos of Shmt1 dams fed nucleoside-supplemented diets", "assay_type": "in vivo, mouse", "conditions": "for Shmt1+/+ embryos with exencephaly: crosses involving Shmt1+/+ dams; for prevention of NTDs by supplementation of the folate-deficient (FD) diet: maternal folate deficiency, 0.2% thymidine or 0.1% 2'-deoxyuridine in diet", "text": "NTDs were examined in litters harvested from crosses of 129SvEv-Shmt1 (N=10 and more) mice. Shmt1^+/−, Shm1^+/+, and Shmt1^−/− mice were generated from Shmt1^+/− breeding pairs maintained as a heterozygote breeding colonies. Shmt1^+/+ and Shmt1^−/− female mice were then crossed to Shmt1^+/− male mice for timed mating experiments, as described below.\nMice were maintained on a 12-hour light/dark cycle in a temperature-controlled room. For studies investigating Shmt1 disruption and NTDs, female mice were randomly assigned at weaning to experimental AIN93G diets containing folic acid (C) or AIN93G lacking folic acid (FD) (FIG. 2) and including 0.6% uridine (Rudolph F B & Van Buren C T (1993), which is hereby incorporated by reference in its entirety), 0.2% thymidine (Iwasa et al., “The Well-Balanced Nucleoside-Nucleotide Mixture ‘0G-VI’ for Special Medical Purposes,” Nutrition 13(4):361-364 (1997), which is hereby incorporated by reference in its entirety), or 0.1% 2′-Deoxyuridine supplementation (Dyets, Bethlehem, Pa.). Diets were assigned with these abbreviations: AIN-93G as control (“C”); Folate Deficient (“FD”), C+ supplemented with 0.6% uridine (“C+U”), C+ supplemented with 0.2% thymidine (“C+T”), C+ supplemented with 0.1% 2′-Deoxyuridine (“C+dU”), FD+ supplemented with 0.6% uridine (“FD+U”), FD+ supplemented with 0.2% thymidine (“FD+T”), FD+ supplemented with 0.1% 2′-Deoxyuridine (“FD+dU”).\n(§1) For all studies, mouse dams were maintained on diet from weaning throughout the breeding period and for the duration of gestation, until killed. Virgin female mice aged 70-120 days were housed overnight with males. The following morning, females were examined for the presence of a vaginal plug. Nine o'clock a.m. the day of the plug appearance was designated as gestational day 0.5 (E0.5). Pregnant females were sacrificed by cervical dislocation at E11.5 and blood was collected by cardiac puncture. Gravid uteri were removed and all implants and resorption sites were recorded. Embryos were examined for presence of NTDs and measured for crown-rump length. All yolk sacs were collected for subsequent genotyping. Embryos were extracted at E11.5 and rapidly frozen in liquid nitrogen followed by storage at −80° C. for biochemical analyses. Embryos examined for morphological abnormalities were derived at E11.5, and fixed in 10% neutral buffered formalin.\nAnalysis of NTD incidence, including differences between Genotypes, Diets, and interactions of Diet×genotype were analyzed by 2-factor ANOVA by using Tukey's honestly significant difference for post hoc analysis."}, "[2]": {"tested_on": "intestinal tumors in Apc-min mice", "experiment": "Intestinal tumor number in Apc-min mice fed supplemented diets", "assay_type": "in vivo, mouse", "conditions": "for intestinal tumors (number per mouse): AIN-93G diet lacking folic acid supplemented with 0.6% uridine or 0.1% deoxyuridine, FD alone 35+/-5", "text": "SHMT1 null ([…]) mice were generated as previously described (MacFarlane et al., “Cytoplasmic Serine Hydroxymethyltransferase Regulates the Metabolic Partitioning of Methylenetetrahydrofolate but is Not Essential in Mice,” J. Biol. Chem. 283(38):25846-25853 (2008), which is hereby incorporated by reference in its entirety) and backcrossed a minimum of 10 generations onto the C57BL/6J strain. Mice were genotyped using the forward primer 5′-GACACTGTTCACATCCCTC-3′ (SEQ ID NO:1) and the reverse primer 5′-CAAAACATTCGGGAGCCTC-3′ (SEQ ID NO:2). The forward primer corresponds to an intron 6 sequence located 5′ to a loxP site and exon 7 and the reverse primer corresponds to an intron 7 sequence located downstream of a 3′ loxP site (MacFarlane et al., “Cytoplasmic Serine Hydroxymethyltransferase Regulates the Metabolic Partitioning of Methylenetetrahydrofolate but is Not Essential in Mice,” J. Biol. Chem. 283(38):25846-25853 (2008), which is hereby incorporated by reference in its entirety). C57BL/6J-Apc^Min/J (Apc^min/+) mice were obtained. Genotyping of Apc^min/+ mice was performed using the following primers recommended by The Jackson Laboratory protocol: wild-type forward primer 5′-GCCATCCCTTCACGTTAG-3′ (SEQ ID NO:3), Min forward primer 5′-[…]-3′ (SEQ ID NO:4), and a common reverse primer 5′-TTCCACTTTGGCATAAGGC-3′ (SEQ ID NO:5). […]\nThe small intestine and colon were removed, flushed with cold PBS, opened longitudinally, and laid flat lumen side up for examination using a dissecting microscope as previously described (Chiu et al., “Sulindac Causes Rapid Regression of Preexisting Tumors in Min/+Mice Independent of Prostaglandin Biosynthesis,” Cancer Res. 57:4267-73 (1997), which is hereby incorporated by reference in its entirety). Tumors were counted according to intestinal location (small intestine or colon) and their diameter measured by a pathologist-trained investigator who was blinded to the genotype of the intestinal specimen. Tumor load is a function of tumor number and area and was calculated as the total tumor area per mouse. […]"}, "[3]": {"tested_on": "embryos and litters of Shmt1 dams", "experiment": "Implants, resorptions, dead embryos and crown-rump length in litters of Shmt1 dams", "assay_type": "in vivo, mouse", "conditions": "for implantation, dead embryos occurrence, rates of resorption compared with C diet: litters from dams", "text": "as §1\nAnalysis of embryonic CR length, total litter resorptions and implants was analyzed by 2-factor ANOVA with Tukey's honestly significant difference for post hoc analysis, in which litter was considered as a random effect. Independent variables included maternal genotype and diet. Resorption rate was calculated as the ratio of resorptions/total implants per litter and log-transformation was applied to normalize the data. Chi-squared analyses were used to assess any deviation from expected genotype ratios based on Mendelian inheritance. Analysis of uracil concentration, Thymidine, deoxyuridine, glucose and folate were conducted by 2-factor ANOVA with Tukey honestly significant differences for post hoc analysis. Independent variables included maternal genotype and diet. All test were performed in JMP version 8.02 (SAS institute). Western blots analyses were assessed using ANOVA and Dunnett's Multiple Comparison Test. […] All statistics were performed using GraphPad Prism version 4.00 for Windows, GraphPad Software, San Diego Calif. USA."}, "female mice": {"tested_on": "female mice", "experiment": "Gross observations in female mice weaned on the diets", "assay_type": "in vivo, mouse"}, "[4]": {"conditions": "Shmt1+/+ dams, C+U diet (inferred), out of 69"}, "[5]": {"conditions": "Shmt1+/+ female mice fed FD+U diet (0.6% uridine), out of 56"}, "[6]": {"conditions": "Shmt1-/- dams fed FD+T diet (0.2% thymidine), out of 32"}}}
{"smiles": "Nc1nc2ncc(CNc3ccc(C(=O)N[C@@H](CCC(=O)O)C(=O)O)cc3)nc2c(=O)[nH]1", "note": "[folic acid]", "values": [{"measurement": "rescue / prevention of NTDs by dietary supplementation", "setting": "splotch mutant (Pax3^Sp)", "result": "can be rescued"}]}
{"smiles": "O=c1ccn([C@@H]2O[C@H](CO)[C@@H](O)[C@H]2O)c(=O)[nH]1", "note": "[uridine]", "values": [{"measurement": "frequency of exencephaly in embryos", "setting": "[1]; [4]", "result": 5.8, "unit": "%"}, {"measurement": "number of embryos with NTDs", "setting": "[1]; [4]", "result": 4, "unit": "NTDs"}, {"measurement": "frequency of exencephaly in embryos", "setting": "[1]; [5]", "result": 5.4, "unit": "%"}, {"measurement": "number of embryos with exencephaly", "setting": "[1]; [5]", "result": 3}, {"measurement": "number of embryos with exencephaly", "setting": "[1]; Shmt1-/- dams fed FD+U diet (0.6% uridine), of 44 viable embryos", "result": 7}, {"measurement": "frequency of exencephaly in embryos", "setting": "[1]; Shmt1-/- dams fed FD+U diet (folate deficient + 0.6% uridine), of 44 viable embryos", "result": 15.9, "unit": "%"}, {"measurement": "frequency of exencephaly in embryos", "setting": "[1]; Shmt1-/- dams, C+U diet (AIN-93G + 0.6% uridine; diet inferred from next sentence), out of 50 viable embryos", "result": 6, "unit": "%"}, {"measurement": "number of embryos with NTDs", "setting": "[1]; Shmt1-/- dams, C+U diet (inferred), out of 50 viable embryos", "result": 3, "unit": "NTDs"}, {"measurement": "Shmt1+/+ embryos with exencephaly", "setting": "[1]", "result": "One"}, {"measurement": "effect on NTD frequency", "setting": "[1]; uridine supplementation, independent of dietary folic acid", "result": "exacerbated NTD frequency"}, {"measurement": "intestinal tumors (number per mouse)", "setting": "[2]", "result": "18+/−2"}, {"measurement": "implantation, dead embryos occurrence, rates of resorption compared with C diet", "setting": "[3]", "result": "Neither implantation, dead embryos occurrence, or rates of resorption were significantly different"}]}
{"smiles": "O=c1ccn([C@H]2C[C@H](O)[C@@H](CO)O2)c(=O)[nH]1", "note": "[deoxyuridine, 2′-Deoxyuridine]", "values": [{"measurement": "other gross findings", "setting": "female mice; dU and dUFD groups", "result": "Edematous of internal organs (up to 4 mice from dU and dUFD groups together), blood in GI track and uterus, and discoloration of pancreas"}, {"measurement": "lymphoid aggregates on colons compared to other groups", "setting": "female mice; female mice weaned on C+dU and FD+dU", "result": "High frequency of numerous lymphoid aggregates"}, {"measurement": "NTD occurrence", "setting": "[1]; Shmt1+/+ and Shmt1-/- dams fed FD+dU diet (folic acid deficient + 0.1% 2'-deoxyuridine)", "result": "did not exhibit NTDs"}, {"measurement": "prevention of NTDs by supplementation of the folate-deficient (FD) diet", "setting": "[1]", "result": "prevented NTDs"}, {"measurement": "intestinal tumors (number per mouse)", "setting": "[2]", "result": "29+/−2.0"}, {"measurement": "effect on tumor number", "setting": "[2]; FD diet + 0.1% deoxyuridine", "result": "no effect on tumor number"}, {"measurement": "number of dead embryos", "setting": "[3]; dams fed FD+dU and C+dU diets (0.1% 2'-deoxyuridine)", "result": "higher number of dead embryos, but the differences did not reach significance"}, {"measurement": "implantation, dead embryos occurrence, rates of resorption compared with C diet", "setting": "[3]", "result": "Neither implantation, dead embryos occurrence, or rates of resorption were significantly different"}]}
{"smiles": "Cc1cn([C@H]2C[C@H](O)[C@@H](CO)O2)c(=O)[nH]c1=O", "note": "[thymidine, reference compound]", "values": [{"measurement": "number of embryos with NTDs", "setting": "[1]; Shmt1+/+ dams fed FD+T diet (0.2% thymidine), out of 49", "result": 2, "unit": "NTDs"}, {"measurement": "frequency of NTDs (exencephaly) in embryos", "setting": "[1]; Shmt1+/+ dams fed FD+T diet (AIN93G lacking folic acid + 0.2% thymidine), out of 49", "result": 4.1, "unit": "%"}, {"measurement": "frequency of NTDs (exencephaly) in embryos", "setting": "[1]; [6]", "result": 9.4, "unit": "%"}, {"measurement": "number of embryos with NTDs", "setting": "[1]; [6]", "result": 3, "unit": "NTDs"}, {"measurement": "Shmt1+/+ embryos with exencephaly", "setting": "[1]", "result": "one"}, {"measurement": "NTD occurrence", "setting": "[1]; dams fed C+T diet (AIN-93G + 0.2% thymidine)", "result": "No NTDs were uncovered"}, {"measurement": "prevention of NTDs by supplementation of the folate-deficient (FD) diet", "setting": "[1]", "result": "did not prevent NTD occurrence and not"}]}
